Experimental data from US6737409B2, “Dolastatin 10 derivatives” (Hoffmann-La Roche Inc., priority 2001, dated 2004).

test system: HCT 116; experiment: Antiproliferative activity assay (WST-8); type: cell-based; details: Homo sapiens, HCT-116, 96 h; incubated 4 days, WST-8; concentration of drug yielding 50% OD of the control growth; read-out: HCT 116 IC50
Method: Antiproliferative activity assay was carried out as follows. A single suspension of tumor cells was inoculated to the serially diluted 96-well microtestplate. Then the testplate was incubated in the 5% CO2 ambience at 37° C. for 4 days (2-3×10^3 cells/well). The degree of cell growth in a monolayer was measured by using WST-8 (Dojindo, Japan). IC50 values of drugs against tumor cells were calculated as the concentration of drug yielding 50% OD of the control growth.

`CCC(C)C(C(CC(=O)N1CCCC1C(CC(=O)NCCc1ccccc1)SCc1ccccc1)OC)N(C)C(=O)C(NC(=O)C(C(C)C)N(C)C)C(C)C` (stereo not drawn) [N-[1-({4-[2-(1-Benzylsulfanyl-2-phenethylcarbamoyl-ethyl)-pyrrolidin-1-yl]-1-sec-butyl-2-methoxy-4-oxo-butyl}-methyl-carbamoyl)-2-methyl-propyl]-2-dimethylamino-3-methyl-butyramide] and `C=CCSC(CC(=O)NCCc1ccccc1)C1CCCN1C(=O)CC(OC)C(C(C)CC)N(C)C(=O)C(NC(=O)C(C(C)C)N(C)C)C(C)C` (stereo not drawn) [N-[1-({4-[2-(1-Allylsulfanyl-2-phenethylcarbamoyl-ethyl)-pyrrolidin-1-yl]-1-sec-butyl-2-methoxy-4-oxo-butyl}-methyl-carbamoyl)-2-methyl-propyl]-2-dimethylamino-3-methyl-butyramide] are within 1.5-fold of each other in IC50: 0.52 nM for the first, 0.55 nM for the second.

First: CCC(C)C(C(CC(=O)N1CCCC1C(CC(=O)NCCc1ccc(O)cc1)SC)OC)N(C)C(=O)C(NC(=O)C(C(C)C)N(C)C)C(C)C (stereo not drawn) [N-(1-{[1-sec-Butyl-4-(2-{2-[2-(4-hydroxy-phenyl)-ethylcarbamoyl]-1-methylsulfanyl-ethyl}-pyrrolidin-1-yl)-2-methoxy-4-oxo-butyl]-methyl-carbamoyl}-2-methyl-propyl)-2-dimethylamino-3-methyl-butyramide]
Second: CCC(C)C(C(CC(=O)N1CCCC1C(CC(=O)NCCc1ccccn1)SC)OC)N(C)C(=O)C(NC(=O)C(C(C)C)N(C)C)C(C)C (stereo not drawn) [N-{1-[(1-sec-Butyl-2-methoxy-4-{2-[1-methylsulfanyl-2-(2-pyridin-2-yl-ethylcarbamoyl)-ethyl]-pyrrolidin-1-yl}-4-oxo-butyl)-methyl-carbamoyl]-2-methyl-propyl}-2-dimethylamino-3-methyl-butyramide]
The IC50 of the first is 1.5-fold lower: 0.6 nM for the first, 0.9 nM for the second.

`CCC(C)C(C(CC(=O)N1CCCC1C(CC(=O)NCCc1ccccc1)Sc1cccc(O)c1)OC)N(C)C(=O)C(NC(=O)C(C(C)C)N(C)C)C(C)C` (stereo not drawn) [N-{1-[(1-sec-Butyl-4-{2-[1-(3-hydroxy-phenylsulfanyl)-2-phenethylcarbamoyl-ethyl]-pyrrolidin-1-yl}-2-methoxy-4-oxo-butyl)-methyl-carbamoyl]-2-methyl-propyl}-2-dimethylamino-3-methyl-butyramide] and `CCC(C)C(C(CC(=O)N1CCCC1C(CC(=O)NCCc1ccccc1)SCCO)OC)N(C)C(=O)C(NC(=O)C(C(C)C)N(C)C)C(C)C` (stereo not drawn) [N-{1-[(1-sec-Butyl-4-{2-[1-(2-hydroxy-ethylsulfanyl)-2-phenethylcarbamoyl-ethyl]-pyrrolidin-1-yl}-2-methoxy-4-oxo-butyl)-methyl-carbamoyl]-2-methyl-propyl}-2-dimethylamino-3-methyl-butyramide] are within 1.5-fold of each other in IC50: 0.3 nM for the first, 0.39 nM for the second.

First: CCC(C)C(C(CC(=O)N1CCCC1[C@@H](CC(=O)NCCc1ccccc1)SC(C)(C)C)OC)N(C)C(=O)C(NC(=O)C(C(C)C)N(C)C)C(C)C (stereo partly drawn) [N-[1-({1-sec-Butyl-4-[2-(1-(R)-tert-butylsulfanyl-2-phenethylcarbamoyl-ethyl)-pyrrolidin-1-yl]-2-methoxy-4-oxo-butyl}-methyl-carbamoyl)-2-methyl-propyl]-2-dimethylamino-3-methyl-butyramide]
Second: CCC(C)C(C(CC(=O)N1CCCC1C(CC(=O)NCCc1ccccc1)S(C)(=O)=O)OC)N(C)C(=O)C(NC(=O)C(C(C)C)N(C)C)C(C)C (stereo not drawn) [N-[1-({1-sec-Butyl-4-[2-(1-methanesulfonyl-2-phenethylcarbamoyl-ethyl)-pyrrolidin-1-yl]-2-methoxy-4-oxo-butyl}-methyl-carbamoyl)-2-methyl-propyl]-2-dimethylamino-3-methyl-butyramide]
The IC50 of the first is 11-fold lower: 0.04 nM for the first, 0.44 nM for the second.

same assay, conditions: incubated 4 days, WST-8; concentration of drug yielding 50% OD of the control growth; read-out: HCT 116 IC50

In the case of `CCC(C)C(C(CC(=O)N1CCCC1C(SC)C(C)C(=O)NCCc1ccccc1)OC)N(C)C(=O)C(NC(=O)C(NC)C(C)C)C(C)C` (stereo not drawn) [N-[-({1-sec-Butyl-2-methoxy-4-[2-(1-methylsulfanyl-2-phenethylcarbamoyl-propyl)-pyrrolidin-1-yl]-4-oxo-butyl}-methyl-carbamoyl)-2-methyl-propyl]-2-methylamino-3 methyl-butyramide], the IC50 is reported as 1 nM.
